Reference: patent US20080226682A1, “Immunoactive Compositions for Improved Oral Delivery of Vaccines and Therapeutic Agents” (PerOs Systems Technologies, Inc., priority 2007, published 2008)
Where two headings read alike, the source gives them in different places.

Assays:
[1] = system: LPS induced NO generation in RAW264.7 cells; assay: PUFA pretreatment, LPS induced NO generation in RAW264.7
[2] = Plasma pharmacokinetics of antibiotics (HPLC); assay type: in vivo, Coho salmon (Oncorhynchus kisutch); conditions: for AUC, times higher in Formula 2 than same concentration in commercial feed: oral, same dose in both; for Cmax / Tmax / AUC(0-t): plasma; for AUC(0-t): read-out: AUC(0-120 h)
Procedure: In the first study, Coho salmon (n-70 fish/group) were treated with flumequine at a dose of 30 mg/kg incorporated in commercial feed or in formula F2. In the second study, fish were treated orally with florfenicol, antibiotic was given at 15 mg/kg incorporated in commercial feed or at 15 and 50 mg/kg in formula F2. In addition, florfenicol was also given via i.p. injection at 20 mg/kg. At predetermined time periods post-administration, blood samples were collected via the caudal vein according to routine procedures. Levels of antibiotics in plasma of fish were determined by high performance liquid chromatography (HPLC).

[3] = system: swine immune cells; conditions: purified isoflavone
[4] = system: human immune cells; conditions: purified isoflavone
[5] = system: bovine immune cells; conditions: purified isoflavone
[6] = system: feline immune cells; conditions: purified isoflavone
[7] = system: canine immune cells; conditions: purified isoflavone
[8] = system: trout immune cells; assay type: cell-based; conditions: purified isoflavone
Description: The pellet is suspended in RPMI medium.

[9] = system: LPS-induced NO generation in RAW264.7 cells; assay: LPS-induced NO generation in RAW264.7 cells (1 hour pretreatment with isoflavones or saponins); assay type: cell-based, murine
Procedure: In yet another exemplary embodiment, the ability of isoflavones to modulate the production of LPS-induced NO generation in RAW264.7 cells was investigated. […] Cells were incubated with isoflavones for 1 hour at 37±2° C.
Cells were incubated with saponins 1 hour at 37±2° C.

[10] = system: equine immune cells; conditions: purified isoflavone
[11] = system: PHA induced IFN-gamma production in calf PBMC; assay: PHA induced IFN-gamma production in calf PBMC; assay type: cell-based; conditions: PHA-E+L 1 ug/ml, 3 days, FIG. 9
Procedure: Calf PBMC were isolated as described in Example 3. […] After incubation, supernatants were sampled. Supernatants from identical treatment wells were combined and stored frozen at −18±5° C. until tested for IFN-gamma. Supernatant samples were tested for bovine IFN-gamma using a commercial kit (Thermo Scientific). Briefly, plates were coated overnight with capture antibody in carbonate coating buffer. […] Plates were washed and treated with streptavidin-HRP for 30 minutes at RT. Plates were washed and substrate was added for 20 minutes at RT in the dark. Following incubation, stop solution was added to each well, and plates were read at 450 nm (550 nm reference wavelength). Data was plotted as Stimulation Index (IFN-gamma concentration of sample treated with isoflavone divided by IFN-gamma concentration of sample treated with PHA only) vs. isoflavone concentration. Since isoflavones dilutions were made in DMSO, the DMSO carrier was tested at the corresponding concentrations to determine the carrier effect.

[12] = system: shrimp immune cells; conditions: purified isoflavone
[13] = system: salmon immune cells; conditions: purified isoflavone
[14] = Blood glucose after oral administration of insulin; assay type: in vivo, CD1 mice; conditions: FIG. 14
Procedure: Preparation of protease inhibitor extracts. Protease inhibitors (4.44 g beans and 0.56 g albumen) were homogenized in Tris-HCL buffer (pH 7.5). The mixture was divided in equal volumes, centrifuged (3500 RPM for 10 minutes) and supernatants were pooled together. Supernatant was then concentrated by centrifugation through 10K cut-off Millipore filter tubes.
Preparation of uptake-increasing agents solution. In a 15 ml falcon tube, 1 ml of carbonate-bicarbonate buffer (0.25 M, pH 9.5) was added to 45 mg of sodium deoxycholate and stirred until complete dissolution. In another 15 ml falcon tube, 7 ml of carbonate-bicarbonate buffer (0.25 M, pH 9.5) was added to 450 mg of EDTA and stirred until complete dissolution. Both solutions were then pooled together.
Final preparation of liquid formulation. […] The liquid formulation was then kept at 4° C. until use.
Experimental Design. Twenty four female CD1 mice of an average weight of 30 g were used in this study (see Table 14 for the identification of experimental groups). […]
CD1 mice were gavaged with insulin (200 U/kg) incorporated in a liquid composition (group A) and in water (group B). […] At determined time periods post-administration (see Table 13), blood samples were taken via the retroorbital sinus and blood glucose levels were measured individually for each animal using an Ascencia™ DEX-2 blood glucose meter kit.

[15] = po, 15 mg/kg, oral in Oralject ™ (F2)
[16] = po, 15 mg/kg, oral in commercial feed
[17] = po, 50 mg/kg, oral in Oralject ™ (F2)
[18] = po, 30 mg/kg, oral in Oralject ™ (F2)
[19] = po, 30 mg/kg, oral in commercial feed

CCCCC/C=C\C/C=C\C/C=C\C/C=C\CCCC(=O)O [AA, arachidonic acid]
concentration required to inhibit to a similar level (40%) ([1]; 24 hours pretreatment, LPS 1 μg/ml 8 hours): 100 µM | immunomodulatory activity ([1]; FIG. 8): marginal to no immunomodulatory activity

CC/C=C\C/C=C\C/C=C\C/C=C\C/C=C\CCCCCC(=O)O [DPA, docosapentaenoic acid]
inhibition (text: of proliferation; FIG. 8: of LPS induced NO production) ([1]; 1 μM PUFA, 24 hours pretreatment, LPS 1 μg/ml 8 hours): 40% | fold more effective at inhibiting than the N-6 PUFA, AA ([1]; FIG. 8): 10-100 fold

CS(=O)(=O)c1ccc([C@@H](O)[C@@H](CF)NC(=O)C(Cl)Cl)cc1 [Florfenicol]
AUC, times higher in Formula 2 than same concentration in commercial feed [2]: 5.2 times | Cmax ([2]; ip, 20 mg/kg, i.p. injection): 7050 ng/mL | Tmax ([2]; ip, 20 mg/kg, i.p. injection): 4 h | AUC(0-t) ([2]; ip, 20 mg/kg, i.p. injection, 20 mg/kg): 196000 ng·h/mL | Cmax [2, 15]: 2150 ng/mL | Tmax [2, 15]: 16 h | AUC(0-t) ([2]; po, 15 mg/kg, oral in Oralject ™ (F2), 15 mg/kg): 34400 ng·h/mL | Cmax [2, 16]: 1380 ng/mL | Tmax [2, 16]: 8 h | AUC(0-t) ([2]; po, 15 mg/kg, oral in commercial feed, 15 mg/kg): 6700 ng·h/mL | Cmax [2, 17]: 7960 ng/mL | Tmax [2, 17]: 6 h | AUC(0-t) ([2]; po, 50 mg/kg, oral in Oralject ™ (F2), 50 mg/kg): 136000 ng·h/mL

CC1CCc2cc(F)cc3c(=O)c(C(=O)O)cn1c23 (stereo not shown) [Flumequine]
peak plasma concentration, fold higher via Formula 2 than with commercial feed ([2]; 30 mg/kg oral, FIG. 17): approximately 5 fold | AUC, times higher in Formula 2 than same concentration in commercial feed [2]: 3.7 times | Cmax [2, 18]: 440 ng/mL | Tmax [2, 18]: 2 h | AUC(0-t) ([2]; po, 30 mg/kg, oral in Oralject ™ (F2), 30 mg/kg): 61900 ng·h/mL | Cmax [2, 19]: 2290 ng/mL | Tmax [2, 19]: 8 h | AUC(0-t) ([2]; po, 30 mg/kg, oral in commercial feed, 30 mg/kg): 16800 ng·h/mL

CCCCC/C=C\C/C=C\CCCCCCCC(=O)O [LA, linoleic acid]
immunomodulatory activity ([1]; FIG. 8): marginal to no immunomodulatory activity

COc1ccc(-c2coc3cc(O)cc(O)c3c2=O)cc1 [biochanin A, 5,7-dihydroxy 4′-methoxy isoflavone]
Cytokine Secretion Profile (determined by RT-PCR) [3]: None | Cytokine Secretion Profile (determined by RT-PCR) [4]: none | Cytokine Secretion Profile (determined by RT-PCR) [5]: None | Cytokine Secretion Profile (determined by RT-PCR) [6]: IL-4, IL-10 | Cytokine Secretion Profile (determined by RT-PCR) [7]: IL-4, IL-10 | Cytokine Secretion Profile (determined by RT-PCR) [8]: None | fold higher inhibitory activity compared to daidzein or genistein ([9]; 25 μM, FIG. 10): approximately 10 fold | Cytokine Secretion Profile (determined by RT-PCR) [10]: IL-10 | effect on stimulation indices (IFN-gamma) compared to DMSO control ([11]; 1 μM isoflavone): pronounced increase | effect on stimulation indices (IFN-gamma) compared to DMSO control ([11]; 100 μM isoflavone): inhibitory effect | Cytokine Secretion Profile (determined by RT-PCR) [12]: None | Cytokine Secretion Profile (determined by RT-PCR) [13]: IL-4

O=c1c(-c2ccc(O)cc2)coc2cc(O)ccc12 [daidzein]
Cytokine Secretion Profile (determined by RT-PCR) [3]: None | Cytokine Secretion Profile (determined by RT-PCR) [4]: IFN-gamma | Cytokine Secretion Profile (determined by RT-PCR) [5]: IL-10 | Cytokine Secretion Profile (determined by RT-PCR) [6]: IL-4 | Cytokine Secretion Profile (determined by RT-PCR) [7]: None | Cytokine Secretion Profile (determined by RT-PCR) [8]: IFN-gamma | Cytokine Secretion Profile (determined by RT-PCR) [10]: None | effect on stimulation indices (IFN-gamma) compared to DMSO control ([11]; 10 nM or 100 nM isoflavone): pronounced decrease | effect on stimulation indices (IFN-gamma) compared to DMSO control ([11]; 1 μM isoflavone): pronounced increase | effect on stimulation indices (IFN-gamma) compared to DMSO control ([11]; 100 μM isoflavone): inhibitory effect | Cytokine Secretion Profile (determined by RT-PCR) [12]: IFN-gamma | Cytokine Secretion Profile (determined by RT-PCR) [13]: IFN-gamma

O=c1c(-c2ccc(O)cc2)coc2cc(O)cc(O)c12 [genistein, 4′5,7-trihydroxyisoflavone]
Cytokine Secretion Profile (determined by RT-PCR) [3]: IL-4 | Cytokine Secretion Profile (determined by RT-PCR) [4]: IL-10 | Cytokine Secretion Profile (determined by RT-PCR) [5]: IL-10 | Cytokine Secretion Profile (determined by RT-PCR) [6]: None | Cytokine Secretion Profile (determined by RT-PCR) [7]: None | Cytokine Secretion Profile (determined by RT-PCR) [8]: IL-4, IL-10 | Cytokine Secretion Profile (determined by RT-PCR) [10]: None | effect on stimulation indices (IFN-gamma) compared to DMSO control ([11]; 10 nM or 100 nM isoflavone): pronounced decrease | effect on stimulation indices (IFN-gamma) compared to DMSO control ([11]; 1 μM isoflavone): pronounced increase | effect on stimulation indices (IFN-gamma) compared to DMSO control ([11]; 100 μM isoflavone): no effect | Cytokine Secretion Profile (determined by RT-PCR) [12]: None | Cytokine Secretion Profile (determined by RT-PCR) [13]: IL-10

CC1(C)C[C@@H](O)[C@]2(C)CC[C@]3(C)C(=CC[C@@H]4[C@@]5(C)CC[C@H](O)[C@](C)(CO)[C@@H]5CC[C@]43C)[C@@H]2C1 [sapogenol B, Sapogenol B]
rank of inhibitory potency among saponins ([9]; FIG. 11): most potent inhibitor | inhibition of LPS-induced NO production ([9]; lowest concentrations, FIG. 11): Zero to minimal inhibition | inhibitory effect on LPS-induced NO production ([9]; saponins in DMSO, FIG. 11): inhibited LPS-induced NO production

insulin: Human recombinant insulin (Sigma, #I2643)
effect on blood glucose levels ([14]; 200 U/kg oral gavage in liquid composition (Formula 2)): markedly reduced blood glucose levels | effect on blood glucose levels ([14]; 200 U/kg oral gavage in water): no efficacy in reducing glucose levels
